From patent US20250186408A1, “TREATMENT OF PHARMACORESISTANT EPILEPSY” (Katholieke Universiteit Leuven, priority 2021, published 2025)
Values after ≈ are worked out from the molar mass of the structure shown. Read-outs that look alike come from different tables or passages of the source.

Key:
Aqueous solubility = format: physicochemical
Text: (§1) In vitro ADME profiling of compounds was done by Eurofins Panlabs Inc (St Charles, MO, USA) using their ADME-Tox service (Cat Ref P375, Tier 1 ADME Panel). […] (28). The atom-based log P calculation method, called OsirisP, uses as an increment system and adds contributions of every atom based on its atom type. The prediction engine distinguishes a total of 368 atom types and was optimized using a training set of more than 5000 molecules with experimentally determined log P values. The free prediction engine has proven to outperform many alternative calculation methods (29).
SGF, SIF and PBS buffers were prepared as follows: 34.2 mM NaCl, 84.7 mM HCl, 3.2 g/L pepsin (pH 2) for SGF, 50 mM KH2PO4, 38 mM NaOH, 10 g/L pancreatin (pH 7.5) for SIF and 137 mM NaCl, 2.7 mM KCl, 8.1 mM Na2HPO4 and 1.5 mM KH2PO4 (pH 7.4) for PBS. Test compounds were prepared at 200 μM concentrations in the corresponding buffer from a 10 mM stock solution (final solvent concentration of 2% DMSO). Buffer samples were mixed thoroughly followed by a 24 h incubation at room temperature. Samples were centrifuged and the supernatant was used for HPLC analysis. A calibration standard of the test compound was prepared at 200 μM in methanol/water (3:2 v/v) from the stock solution on the day of the analysis. Metoprolol, rifampicin, ketoconazole, phenytoin, haloperidol, simvastatin, diethylstilbestrol and tamoxifen were included in each assay. Aqueous solubility (μM) was determined by comparing peak areas.

Caco-2 permeability = format: in vitro ADME; conditions: human; for recovery at 10 μM: Caco-2, Caco-2, 10 μM; for Papp A→B at 10 μM / Papp B→A at 10 μM: Caco-2, pH 6.5 and 7.4, 10 μM; for Papp A→B at 10 μM: apical to basolateral; for Papp B→A at 10 μM: basolateral to apical
Text: as §1
Caco-2 cells were derived from a human colorectal adenocarcinoma. For permeability assays, cells were seeded at 1×10^5 cells/cm2 in 96 Multiscreen™ plates (Millipore) and used at days 21-25 post-seeding. Cells were used for 15 consecutive passages in culture. HBSS with 10 mM MES at pH 6.5 (apical side) or HBSS with HEPES at pH 7.4 (basolateral side) were used as the transport buffers. Test compounds were added at 10 μM concentration (final solvent concentration of 1% DMSO) to the apical side to determine apical to basolateral (A-B) transport and to the basal side to determine basolateral to apical (B-A) transport. For inhibition studies, 100 μM verapamil was included on both the A and B sides. Aliquots were taken from the donor side (A-B transport) at time zero and the end point, and from the receiver side (B-A transport) at the end point. Propranolol, labetalol, ranitidine, and colchicine (P-glycoprotein substrate) were included in each assay. Samples were analysed by HPLC-MS/MS for quantification. Papp (cm/sec) was calculated from the following equation: […]
Where VR is the volume of the receiver, C is the concentration of the test compound (either at the donor or receiver side and at mid-point or end point of the incubation), Δt is the incubation time (seconds) and A is the surface area of the cell monolayer (0.11 cm^2).

NMDAR (1A/2B) = NMDAR (1A/2B) (Homo sapiens, UniProt Q05586+Q13224); test: Ion Channel NMDAR (1A/2B) Opener; format: cell-based; conditions: for Emax: Ion Channel NMDAR (1A/2B) Opener, read-out: Max response
CHRM1 = biological target: T1, CHRM1 (Homo sapiens, UniProt P11229); test: Calcium Flux CHRM1 Agonist; conditions: for Emax: read-out: Max response
T1 sequence (P11229 1-460): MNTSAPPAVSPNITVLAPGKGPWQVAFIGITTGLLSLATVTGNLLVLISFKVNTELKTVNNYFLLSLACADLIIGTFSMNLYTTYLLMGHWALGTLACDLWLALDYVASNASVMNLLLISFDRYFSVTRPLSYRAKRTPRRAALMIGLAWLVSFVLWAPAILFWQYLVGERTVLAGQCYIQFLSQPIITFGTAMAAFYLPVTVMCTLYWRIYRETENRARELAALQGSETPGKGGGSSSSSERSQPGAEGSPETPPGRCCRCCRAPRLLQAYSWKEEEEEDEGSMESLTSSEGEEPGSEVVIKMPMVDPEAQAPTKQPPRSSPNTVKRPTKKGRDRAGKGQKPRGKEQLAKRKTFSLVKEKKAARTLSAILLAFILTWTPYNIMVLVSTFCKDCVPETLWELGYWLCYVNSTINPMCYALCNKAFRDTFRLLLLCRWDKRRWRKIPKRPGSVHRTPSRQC
Protocol: (§2) In vitro pharmacological profiling of compounds was done against 78 functional assays for 47 common off-targets (30) by Eurofins DiscoverX Corporation (Fremont, CA, USA) using their SAFETYscan E/IC50 ELECT service (Cat Ref 87-1003DR, Safety47 Panel Dose Response). […] Compounds were tested in a range of 10 concentrations, following a 3-fold serial dilution, starting from 10 μM. The assays were performed utilizing the PathHunter enzyme fragment complementation (EFC) technology, FLIPR®-based cellular screening assays, and KINOMEscan kinase binding assays.
(§3) Prior to testing, cells (10,000 cells/well) were expanded from freezer stocks and seeded into a total volume of 50 μL into black walled, clear-bottom, Poly-D-lysine coated 384-well microplates and incubated at 37° C. […] Assays were performed in 1× dye loading buffer consisting of 1× Dye (DiscoverX, Calcium No Wash^PLUS kit, Catalog No. 90-0091), 1× Additive A and 2.5 mM Probenecid in HBSS/20 mM HEPES. Probenecid was prepared fresh. Prior to testing, media was aspirated from cells and replaced with 25 μL dye loading buffer. Cells were incubated for 45 min at 37° C. and then 20 min at RT. For agonist determination, 25 μL of 2× compound in HBSS/20 mM HEPES was added using a FLIPR Tetra (MDS). For antagonist determination, cells were pre-incubated with sample followed by agonist challenge at the EC80 concentration. 25 μL of 2× sample was added and cells were incubated for 30 min at RT in the dark to equilibrate plate temperature. After incubation, antagonist determination was initiated by addition of 25 μL of 1× compound with 3×EC80 agonist using FLIPR. For both agonist and antagonist formats, activity was measure on a FLIPR Tetra (MDS). Calcium mobilization was monitored for 2 min with a 5 sec baseline read.
(§4) FLIPR read—Area under the curve, was calculated for the entire 2 min read. Compound activity was analysed using CBIS data analysis suite (ChemInnovation, CA).

HTR2A = HTR2A (Homo sapiens, UniProt P28223); test: Calcium Flux HTR2A Agonist; conditions: for Emax: read-out: Max response
Protocol: as §2, §3, §4

[1] = Pharmacokinetic analysis in naïve mice; conditions: single i.p. 300 mg/kg, male NMRI mice
Protocol: After the treatment period, blood samples were drawn from the tail veins, collected in Greiner MiniCollect K2EDTA tubes, and centrifuged twice for 5 min at 15,000 g to obtain plasma samples. Three volumes of acetonitrile were added to one volume of plasma to precipitate out the proteins. The samples were vortexed for 20 s and placed on ice. Immediately after, they were centrifuged at 5,000 g for 10 min and again at 10,000 g for 2 min. The resulting supernatants were transferred to Eppendorf tubes and centrifuged for 2 min at 10,000 g. Finally, the supernatants were collected for analysis by LC-MS/MS to determine the targeted compound concentration. Percentage recovery was determined as follows: known concentrations of the compound were spiked into the blank plasma and acetonitrile was added (3:1 ratio) to precipitate out the proteins. Samples were vortexed for 20 s and placed on ice. The resulting supernatants were isolated via centrifugation as described above. The targeted compounds were identified using LC-MS/MS to detect their characteristic ions. Plasma concentrations at each point were plotted as a function of time.
Brain samples were collected at the same time points as described for blood samples. Male NMRI mice were overdosed with dolethal via i.p. administration. Mice were perfused with 0.9% saline and brains were collected in Eppendorf tubes. Brains were weighed, whereafter 400 μL of acetonitrile was added to the samples. […] Homogenized samples were centrifuged at 5,000 g for 10 min and again at 10,000 g for 2 min. The resulting supernatants were transferred to Eppendorf tubes and centrifuged for 2 min at 10,000 g. Finally, the supernatants were collected for analysis by LC-MS/MS to determine the targeted compound concentration in the brain tissue.
The compound concentrations in mouse plasma and brain were determined by LC-MS/MS.

[2] = aqueous buffer, kinetic from dmso stock, PBS pH 7.4, tested at 200 μM, 24 h room temperature, read-out: aqueous solubility PBS (pH 7.4)
[3] = fassgf or other biorelevant, kinetic from dmso stock, simulated intestinal fluid pH 7.5, tested at 200 μM, read-out: aqueous solubility simulated intestinal fluid
[4] = kinetic from dmso stock, simulated gastric fluid pH 2, tested at 200 μM, read-out: aqueous solubility simulated gastric fluid
[5] = read-out: percentual recovery, apical to basolateral direction
[6] = read-out: percentual recovery, basolateral to apical direction

Chain of HTR2A (P28223 whole entry): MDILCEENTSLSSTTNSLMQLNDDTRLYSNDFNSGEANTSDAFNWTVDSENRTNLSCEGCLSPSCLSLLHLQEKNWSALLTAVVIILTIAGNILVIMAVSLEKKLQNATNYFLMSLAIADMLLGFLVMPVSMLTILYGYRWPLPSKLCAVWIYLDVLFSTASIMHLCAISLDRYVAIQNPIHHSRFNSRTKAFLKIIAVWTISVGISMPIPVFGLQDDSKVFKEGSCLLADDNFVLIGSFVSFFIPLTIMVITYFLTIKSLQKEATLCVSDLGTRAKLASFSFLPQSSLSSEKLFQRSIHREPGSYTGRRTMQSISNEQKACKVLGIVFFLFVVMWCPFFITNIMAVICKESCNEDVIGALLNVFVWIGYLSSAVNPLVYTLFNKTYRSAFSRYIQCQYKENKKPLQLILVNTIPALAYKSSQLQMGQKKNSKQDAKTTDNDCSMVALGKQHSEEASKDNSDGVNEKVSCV
Chain of NMDAR (1A/2B) (Q13224 27-1484, other chains not shown): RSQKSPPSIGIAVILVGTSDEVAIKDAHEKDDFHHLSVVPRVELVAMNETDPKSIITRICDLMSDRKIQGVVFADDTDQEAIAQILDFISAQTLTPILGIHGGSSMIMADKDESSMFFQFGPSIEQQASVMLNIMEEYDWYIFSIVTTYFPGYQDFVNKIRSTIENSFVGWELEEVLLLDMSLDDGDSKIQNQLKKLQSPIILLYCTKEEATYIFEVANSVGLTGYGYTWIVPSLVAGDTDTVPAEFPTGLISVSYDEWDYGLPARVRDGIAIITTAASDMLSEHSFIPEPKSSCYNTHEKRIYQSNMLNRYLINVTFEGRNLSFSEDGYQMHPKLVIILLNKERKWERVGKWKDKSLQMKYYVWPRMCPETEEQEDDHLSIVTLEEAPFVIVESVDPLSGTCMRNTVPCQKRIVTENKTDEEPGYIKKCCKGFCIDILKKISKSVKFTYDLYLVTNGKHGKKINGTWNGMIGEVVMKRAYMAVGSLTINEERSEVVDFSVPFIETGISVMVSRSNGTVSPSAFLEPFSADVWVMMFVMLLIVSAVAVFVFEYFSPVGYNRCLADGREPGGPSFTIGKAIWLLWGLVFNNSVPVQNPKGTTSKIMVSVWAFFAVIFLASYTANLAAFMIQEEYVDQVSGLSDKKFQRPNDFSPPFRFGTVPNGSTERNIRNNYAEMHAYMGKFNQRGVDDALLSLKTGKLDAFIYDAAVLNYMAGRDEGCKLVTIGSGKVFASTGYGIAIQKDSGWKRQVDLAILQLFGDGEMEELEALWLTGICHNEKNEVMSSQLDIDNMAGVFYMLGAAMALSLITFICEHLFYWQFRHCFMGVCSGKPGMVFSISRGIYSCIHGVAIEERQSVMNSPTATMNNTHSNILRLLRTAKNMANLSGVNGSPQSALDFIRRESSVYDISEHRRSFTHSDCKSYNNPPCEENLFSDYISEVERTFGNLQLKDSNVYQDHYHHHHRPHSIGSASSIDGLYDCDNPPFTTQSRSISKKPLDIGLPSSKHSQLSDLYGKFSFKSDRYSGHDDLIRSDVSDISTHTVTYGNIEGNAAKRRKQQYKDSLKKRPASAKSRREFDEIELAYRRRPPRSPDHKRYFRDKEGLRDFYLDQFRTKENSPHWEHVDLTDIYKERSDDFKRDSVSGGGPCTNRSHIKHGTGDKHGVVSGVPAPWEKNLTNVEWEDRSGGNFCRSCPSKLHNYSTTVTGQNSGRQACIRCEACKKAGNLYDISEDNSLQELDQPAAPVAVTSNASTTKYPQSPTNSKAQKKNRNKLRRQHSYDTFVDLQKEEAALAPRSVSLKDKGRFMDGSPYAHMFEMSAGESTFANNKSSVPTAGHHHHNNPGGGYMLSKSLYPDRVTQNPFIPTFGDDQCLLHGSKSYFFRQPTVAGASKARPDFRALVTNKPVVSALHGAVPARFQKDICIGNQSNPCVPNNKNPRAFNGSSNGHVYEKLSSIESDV

| SMILES | solubility at 24 h (Aqueous solubility; [2]) [µM] | solubility at 24 h (Aqueous solubility; [3]) [µM] | solubility at 24 h (Aqueous solubility; [4]) [µM] | recovery at 10 μM (Caco-2 permeability; [5]) [%] | recovery at 10 μM (Caco-2 permeability; [6]) [%] | Papp A→B at 10 μM (Caco-2 permeability) [×10⁻⁶ cm/s] | Papp B→A at 10 μM (Caco-2 permeability) [×10⁻⁶ cm/s] | EC50 (NMDAR (1A/2B)) [µM] | Emax (NMDAR (1A/2B)) [%] | EC50 (CHRM1) [µM] | Emax (CHRM1) [%] | EC50 (HTR2A) [µM] | Emax (HTR2A) [%] | time at which brain concentration peaked [1] [min] | time at which plasma concentration peaked [1] [min] | solubility at 24 h (Aqueous solubility; PBS pH 7.4, tested at 200 μM, 24 h room temperature, read-out: aqueous solubility PBS (pH 7.4)) [µM] |
| --- | --- | --- | --- | --- | --- | --- | --- | --- | --- | --- | --- | --- | --- | --- | --- | --- |
| CC(C)(C)c1ccc(C#CC(O)c2ccccc2)cc1 (racemic) [Compound 3.3, rac-3-(4-(tert-butyl)phenyl)-1-phenylprop-2-yn-1-ol] | 17.7 (≈ 4.68 µg/mL) | 102 (≈ 27.1 µg/mL) | 24.5 (≈ 6.48 µg/mL) | 6 | 15 | 0.4 | 0.1 | > 10 | 0 | > 10 | 1.8 | > 10 | 0 | 30 | 30 |  |
| Clc1cccc(C#Cc2n[nH]c3ncccc23)c1 [Compound 10.1, 3-((3-chlorophenyl)ethynyl)-1H-pyrazolo[3,4-b]pyridine] | < 0.1 | 26.7 (≈ 6.77 µg/mL) | 26.7 (≈ 6.77 µg/mL) | 13 | 44 | 3.3 | 0.7 | > 10 | 0 | > 10 | 1.8 | > 10 | 0 | 150 | 60 to 240 | <0.1 |
